From the supplement of paper PMC10307832

Key:
Experiment in all cases: relative viability (nuclei count vs DMSO), 5 days (fraction); higher = more cells survive
LXF-289 = test system: LXF-289
Procedure, shortened: (§1)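 The day after seeding in 1536-well plates, lung cancer cell lines were treated by pin tool with a single drug, or with a fixed anchor-drug dose together with five library-drug doses (not always all listed) in √10 steps. After 5 days, a combined fix-and-stain solution (final 0.05% Triton X-100, 1% formaldehyde, 1 ug/ml Hoechst) was added. Nuclei counted on 4× images gave relative viability as treated counts over vehicle counts, reported as the median of duplicate plates.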

UMC-11 = test system: UMC-11
Procedure, shortened: as §1

HCC-78 = test system: HCC-78
Procedure, shortened: as §1

EPLC-272H = test system: EPLC-272H
Procedure, shortened: as §1

EMC-BAC-2 = test system: EMC-BAC-2
Procedure, shortened: as §1

NCI-H1975 = test system: NCI-H1975
Procedure, shortened: as §1

NCI-H2085 = test system: NCI-H2085
Procedure, shortened: as §1

ChaGo-K-1 = test system: ChaGo-K-1
Procedure, shortened: as §1

NCI-H1915 = test system: NCI-H1915
Procedure, shortened: as §1

NCI-H3122 = test system: NCI-H3122
Procedure, shortened: as §1

NCI-H322M = test system: NCI-H322M
Procedure, shortened: as §1

NCI-H2023 = test system: NCI-H2023
Procedure, shortened: as §1

HCC-15 = test system: HCC-15
Procedure, shortened: as §1

HOP-62 = test system: HOP-62
Procedure, shortened: as §1

NCI-H1666 = test system: NCI-H1666
Procedure, shortened: as §1

NCI-H358 = test system: NCI-H358
Procedure, shortened: as §1

NCI-H441 = test system: NCI-H441
Procedure, shortened: as §1

COR-L 105 = test system: COR-L 105
Procedure, shortened: as §1

CAL-12T = test system: CAL-12T
Procedure, shortened: as §1

NCI-H1755 = test system: NCI-H1755
Procedure, shortened: as §1

NCI-H2126 = test system: NCI-H2126
Procedure, shortened: as §1

ABC-1 = test system: ABC-1
Procedure, shortened: as §1

CC(=O)O[C@@]12CO[C@@H]1C[C@H](O)[C@@]1(C)C(=O)[C@H](O)C3=C(C)[C@@H](OC(=O)[C@H](O)[C@@H](NC(=O)OC(C)(C)C)c4ccccc4)C[C@@](O)([C@@H](OC(=O)c4ccccc4)[C@H]21)C3(C)C [Docetaxel] + N=C(N)NC(=N)NCCc1ccccc1 [Phenformin] (partner 250 µM)
relative viability (LXF-289; first compound 0.0002 µM): 0.521 | relative viability (LXF-289; first compound 0.000632 µM): 0.42 | relative viability (LXF-289; first compound 0.002 µM): 0.127 | relative viability (LXF-289; first compound 0.006325 µM): 0.0915 | relative viability (LXF-289; first compound 0.02 µM): 0.0828 | relative viability (UMC-11; first compound 0.0002 µM): 0.309 | relative viability (UMC-11; first compound 0.000632 µM): 0.332 | relative viability (UMC-11; first compound 0.002 µM): 0.228 | relative viability (UMC-11; first compound 0.006325 µM): 0.205 | relative viability (UMC-11; first compound 0.02 µM): 0.199 | relative viability (HCC-78; first compound 0.0002 µM): 0.582 | relative viability (HCC-78; first compound 0.000632 µM): 0.615 | relative viability (HCC-78; first compound 0.002 µM): 0.409 | relative viability (HCC-78; first compound 0.006325 µM): 0.371 | relative viability (HCC-78; first compound 0.02 µM): 0.354 | relative viability (EPLC-272H; first compound 0.0002 µM): 0.304 | relative viability (EPLC-272H; first compound 0.000632 µM): 0.242 | relative viability (EPLC-272H; first compound 0.002 µM): 0.194 | relative viability (EPLC-272H; first compound 0.006325 µM): 0.0792 | relative viability (EPLC-272H; first compound 0.02 µM): 0.0848 | relative viability (EMC-BAC-2; first compound 0.0002 µM): 0.509 | relative viability (EMC-BAC-2; first compound 0.000632 µM): 0.412 | relative viability (EMC-BAC-2; first compound 0.002 µM): 0.306 | relative viability (EMC-BAC-2; first compound 0.006325 µM): 0.278 | relative viability (EMC-BAC-2; first compound 0.02 µM): 0.177 | relative viability (NCI-H1975; first compound 0.0002 µM): 0.406 | relative viability (NCI-H1975; first compound 0.000632 µM): 0.334 | relative viability (NCI-H1975; first compound 0.002 µM): 0.209 | relative viability (NCI-H1975; first compound 0.006325 µM): 0.148 | relative viability (NCI-H1975; first compound 0.02 µM): 0.134 | relative viability (NCI-H2085; first compound 0.0002 µM): 0.735 | relative viability (NCI-H2085; first compound 0.000632 µM): 0.651 | relative viability (NCI-H2085; first compound 0.002 µM): 0.461 | relative viability (NCI-H2085; first compound 0.006325 µM): 0.389 | relative viability (NCI-H2085; first compound 0.02 µM): 0.194 | relative viability (ChaGo-K-1; first compound 0.0002 µM): 0.431 | relative viability (ChaGo-K-1; first compound 0.000632 µM): 0.408 | relative viability (ChaGo-K-1; first compound 0.002 µM): 0.283 | relative viability (ChaGo-K-1; first compound 0.006325 µM): 0.192 | relative viability (ChaGo-K-1; first compound 0.02 µM): 0.149 | relative viability (NCI-H1915; first compound 0.0002 µM): 0.364 | relative viability (NCI-H1915; first compound 0.000632 µM): 0.312 | relative viability (NCI-H1915; first compound 0.002 µM): 0.21 | relative viability (NCI-H1915; first compound 0.006325 µM): 0.147 | relative viability (NCI-H1915; first compound 0.02 µM): 0.116 | relative viability (NCI-H3122; first compound 0.0002 µM): 0.368 | relative viability (NCI-H3122; first compound 0.000632 µM): 0.345 | relative viability (NCI-H3122; first compound 0.002 µM): 0.261 | relative viability (NCI-H3122; first compound 0.006325 µM): 0.152 | relative viability (NCI-H3122; first compound 0.02 µM): 0.139 | relative viability (NCI-H322M; first compound 0.0002 µM): 0.807 | relative viability (NCI-H322M; first compound 0.000632 µM): 0.765 | relative viability (NCI-H322M; first compound 0.002 µM): 0.656 | relative viability (NCI-H322M; first compound 0.006325 µM): 0.478 | relative viability (NCI-H322M; first compound 0.02 µM): 0.332 | relative viability (NCI-H2023; first compound 0.0002 µM): 0.358 | relative viability (NCI-H2023; first compound 0.000632 µM): 0.292 | relative viability (NCI-H2023; first compound 0.002 µM): 0.118 | relative viability (NCI-H2023; first compound 0.006325 µM): 0.0961 | relative viability (NCI-H2023; first compound 0.02 µM): 0.0806 | relative viability (HCC-15; first compound 0.0002 µM): 0.402 | relative viability (HCC-15; first compound 0.000632 µM): 0.315 | relative viability (HCC-15; first compound 0.002 µM): 0.181 | relative viability (HCC-15; first compound 0.006325 µM): 0.203 | relative viability (HCC-15; first compound 0.02 µM): 0.113 | relative viability (HOP-62; first compound 0.0002 µM): 0.671 | relative viability (HOP-62; first compound 0.000632 µM): 0.501 | relative viability (HOP-62; first compound 0.002 µM): 0.322 | relative viability (NCI-H1666; first compound 0.0002 µM): 0.47 | relative viability (NCI-H1666; first compound 0.000632 µM): 0.515 | relative viability (NCI-H1666; first compound 0.002 µM): 0.537 | relative viability (NCI-H1666; first compound 0.006325 µM): 0.382 | relative viability (NCI-H1666; first compound 0.02 µM): 0.337 | relative viability (NCI-H358; first compound 0.0002 µM): 0.247 | relative viability (NCI-H358; first compound 0.000632 µM): 0.188 | relative viability (NCI-H358; first compound 0.006325 µM): 0.0907 | relative viability (NCI-H358; first compound 0.02 µM): 0.0664 | relative viability (NCI-H441; first compound 0.0002 µM): 0.833 | relative viability (NCI-H441; first compound 0.000632 µM): 0.889 | relative viability (NCI-H441; first compound 0.002 µM): 0.315 | relative viability (NCI-H441; first compound 0.006325 µM): 0.281 | relative viability (NCI-H441; first compound 0.02 µM): 0.197 | relative viability (COR-L 105; first compound 0.0002 µM): 0.431 | relative viability (COR-L 105; first compound 0.000632 µM): 0.392 | relative viability (COR-L 105; first compound 0.002 µM): 0.279 | relative viability (COR-L 105; first compound 0.006325 µM): 0.267 | relative viability (COR-L 105; first compound 0.02 µM): 0.247 | relative viability (CAL-12T; first compound 0.0002 µM): 0.522 | relative viability (CAL-12T; first compound 0.000632 µM): 0.305 | relative viability (CAL-12T; first compound 0.002 µM): 0.185 | relative viability (CAL-12T; first compound 0.006325 µM): 0.135 | relative viability (CAL-12T; first compound 0.02 µM): 0.118 | relative viability (NCI-H1755; first compound 0.0002 µM): 0.621 | relative viability (NCI-H1755; first compound 0.000632 µM): 0.577 | relative viability (NCI-H1755; first compound 0.002 µM): 0.411 | relative viability (NCI-H1755; first compound 0.006325 µM): 0.434 | relative viability (NCI-H1755; first compound 0.02 µM): 0.36 | relative viability (NCI-H2126; first compound 0.0002 µM): 0.517 | relative viability (NCI-H2126; first compound 0.000632 µM): 0.468 | relative viability (NCI-H2126; first compound 0.002 µM): 0.297 | relative viability (NCI-H2126; first compound 0.006325 µM): 0.33 | relative viability (NCI-H2126; first compound 0.02 µM): 0.223 | relative viability (ABC-1; first compound 0.0002 µM): 0.27 | relative viability (ABC-1; first compound 0.000632 µM): 0.226 | relative viability (ABC-1; first compound 0.002 µM): 0.232 | relative viability (ABC-1; first compound 0.006325 µM): 0.223 | relative viability (ABC-1; first compound 0.02 µM): 0.212
